Source: patent US5654315A, “Quinuclidine compounds useful in treating diseases” (Imperial Chemical Industries PLC, priority 1991, dated 1997)
pIC50: −log10 of the molar value.

Tests used:
[1] = test system: de novo hepatic cholesterol synthesis; test: Acute rat cholesterol synthesis assay (de novo hepatic cholesterol synthesis from 14C-acetate); type: in vivo; details: female rats, oral gavage, ip or iv (route not given), 14C-acetate ip 1 hour after dosing
Description: (b) Acute rat cholesterol synthesis assay.
This is an acute in vivo test in the rat to measure de novo hepatic cholesterol synthesis from exogenously administered ^14 C-acetate.
Female rats (35-55 g) are housed in reverse lighting conditions (red light from 0200h-1400h) for a period of about 2 weeks prior to test. Animals are allowed free access to chow and drinking water throughout this period. At test, animals should weigh 125-150 g.
Test compounds may be administered by oral gavage, dissolved or suspended in 0.5% polysorbate, or by ip or iv dosing. Control animals receive vehicle alone. After 1 hour the rats are injected ip with 25 μCi [2-^14 C]-acetate (NEN DUPONT. specific activity, 45-60 mCi/mmol NEC-085H, or AMERSHAM specific activity, 50-60 mCi/mmol CFA 14) in a volume of 0.25 ml saline (100 μCi/ml). After a further hour, rats are terminally anaesthetised with halothane and a blood sample obtained from the abdominal vena cava.
1 ml of plasma is lyophilised and then saponified in 2 ml ethanolic KOH (1 part 33% KOH, 9 parts ethanol) at 75° C. for 2 hours. After addition of an equal quantity of water, non-saponifiable lipids are extracted with two 5 ml volumes of hexane. The hexane extracts are evaporated to dryness and the residues dissolved in ethanol to determine cholesterol specific radioactivity. EC50 values can be determined in the standard way.

Squalene synthase = biological target: T1, Squalene synthase (Rattus norvegicus, UniProt Q02769); test: Inhibition of squalene synthase (formation of squalene from tritiated farnesyl pyrophosphate, rat liver microsomes); type: biochemical; details: rat liver microsomal protein; 20 μM 1-[3H]-farnesyl pyrophosphate; 15 minutes; 37° C.; read-out: IC50 (concentration which results in a 50% inhibition of squalene production)
T1 construct: rat liver microsomal protein; from tissue; host or cells: rat liver microsomes
T1 sequence (Q02769 1-416): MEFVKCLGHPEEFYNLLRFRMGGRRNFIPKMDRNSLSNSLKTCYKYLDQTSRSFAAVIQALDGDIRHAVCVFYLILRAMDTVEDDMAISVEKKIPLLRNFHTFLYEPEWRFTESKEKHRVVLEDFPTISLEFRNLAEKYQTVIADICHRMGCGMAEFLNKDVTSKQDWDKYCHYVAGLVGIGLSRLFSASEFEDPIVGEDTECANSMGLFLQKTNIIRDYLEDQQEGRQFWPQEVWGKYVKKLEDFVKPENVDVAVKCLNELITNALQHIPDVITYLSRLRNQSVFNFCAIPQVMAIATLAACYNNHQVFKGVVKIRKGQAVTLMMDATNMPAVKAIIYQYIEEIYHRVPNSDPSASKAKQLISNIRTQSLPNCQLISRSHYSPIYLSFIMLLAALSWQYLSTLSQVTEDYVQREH
Description: (a) Inhibition of Squalene synthase
In this test, the ability of a compound to prevent the formation of squalene from a radioactive substrate (tritiated farnesyl pyrophosphate) is assessed.
The test compound is incubated at a concentration of 25 micromolar in 200 μl of a buffered solution containing potassium phosphate (50 mM), MgCl2 (4.95 mM), KF (9.9 mM), NADPH (0.9 mM) and rat liver microsomal protein (20 μg). Rat liver microsomes are prepared by the method described in published European Patent Application No. 324,421 and stored in liquid nitrogen prior to assay. Assay vials are kept at 37° C. throughout the incubation.
The reaction is started with the addition of the substrate (1-[^3 H]-farnesyl pyrophosphate), final concentration 20 μM, and stopped after 15 minutes reaction time with the addition of 50 μl of 4% KOH. The reaction products are separated from unreacted substrate after application to a C-18 octadecyl 1ccBond column (Analytichem Int product No. 617101). An aqueous fraction is eluted with 250 μl of 0.1M KOH. Squalene is then eluted with 1.0 ml 10% ethyl acetate in hexane and radioactivity determined. The difference in radioactivity in the presence and absence of the test compound is used to determine the level of inhibition. […] The IC50 can then be determined from a plot of percentage inhibition against concentration of test compound.

| Structure (SMILES) | ED50 [1] [mg/kg] | pIC50 (Squalene synthase) |
| --- | --- | --- |
| Oc1ccc(-c2ccc(OCC3(O)CN4CCC3CC4)cc2)cc1 (centres unmarked) [Example 17, 3-(4'-hydroxybiphenyl-4-yloxymethyl)quinuclidin-3-ol] | 11 |  |
| c1ccc(-c2ccc(CNC3CN4CCC3CC4)cc2)cc1 (centres unmarked) [Example 5, 3-[(biphenyl-4-ylmethyl)amino]quinuclidine] |  | 6.85 |
